Laboratory results as given in patent US20150320723A1, “Use of Small Molecule Unfolder Protein Response Modulators to Treat Tumors With Active Sonic Hedgehog (SSH) Signaling Due To Smoothened (SMO) Mutation” (ST. JUDE CHILDREN'S RESEARCH HOSPITAL, priority 2013, published 2015).
Entries after “also recorded” stand apart in the source; their conditions may differ.

Assays:
[1] = test system: C318A mSmo; assay: Thapsigargin sensitivity analysis: mSmo protein stability in NIH3T3 cells, western blot of whole-cell lysates; type: cell-based, mouse; settings: 1 uM thapsigargin, 4 hours prior to lysis, vs vehicle
Procedure: (§1) Next, it was decided to determine whether the effects observed following thermal ER stress induction could be recapitulated by an ER stress modulator that is specific to the UPR. To this end, Smo-expressing cells were treated with the potent ER stress inducing compound thapsigargin. Wild type, C318A or M2 mSmo proteins was expressed in NIH3T3 cells, and treated with vehicle or thapsigargin for 4 hours prior to lysis (FIG. 6A). […] The exact mechanism by which gli1 expression is increased in the wild type mSmo background in response to thapsigargin was not known.
(§2) For protein stability analysis in mammalian cells, ˜1×10^6NIH3T3 cells were transfected with 2 ug of wild type or mutant pcDNA3.1-amino expression vector (Carroll et al., 2012 [31]). For temperature sensitivity analysis, transfected cells were maintained at 37° C. for ˜44 hours, and then shifted to 40° C. for 4 hours prior to lysis. Whole-cell lysates were prepared in modified RIPA buffer (50 mM Tris-HCl, pH 7.4, 150 mM NaCl, 0.25% deoxycholic acid, 1% NP-40, 1 mM EDTA, 0.1% SDS, 0.5 mM DTT, and 1× PIC (Roche)) by rocking for 30 minutes at 4° C. as described (Nachtergaele et al., 2012 [62]). Cell extracts were cleared by centrifuging at 16,000×g at 4° C. for 45 minutes. Supernatants were collected and analyzed by SDS-Page and western blot using anti-GADD153/CHOP (B-3, SCBT) anti-Smo (E5, SCBT) and anti-tubulin (Cell Signaling) antibodies. For thapsigargin sensitivity analysis, NIH3T3 cells expressing wild type or mutant mSmo protein at 37° C. were treated with vehicle (ethanol) or 1 uM thapsigargin (Sigma) in DMEM containing 0.5% fetal calf serum for 4 hrs prior to lysis. Whole-cell lysates were prepared in modified RIPA buffer and analyzed as above.

[2] = test system: M2 mSmo (mSmoM2); assay: as above; type: cell-based, mouse; settings: 1 uM thapsigargin, 4 hours prior to lysis, vs vehicle
Procedure: as §1, §2

[3] = test system: wild type mSmo; assay: as above; type: cell-based, mouse; settings: 1 uM thapsigargin, 4 hours prior to lysis, vs vehicle
Procedure: as §1, §2

[4] = test system: mSmoM2-induced gli1 expression; assay: qPCR analysis of endogenous gli1 induction in NIH3T3 cells expressing mSmoM2; type: cell-based, mouse
Procedure: as §1
To assess gli1 and smo expression, NIH3T3 cells were plated as above and transfected using Fugene 6 (Promega). […] RNA was extracted using RNeasy kit (Qiagen) ˜16 hours after media exchange. cDNA was synthesized from 5 ug of RNA using SuperScript III first strand synthesis system (Invitrogen). qPCR reactions were performed on cDNA diluted 1:10 using SYBR Green PCR master mix (Applied Biosystems). GAPDH was used as a reference gene and results were analyzed using a standard 2^−ααCt method (Livak & Schmittgen, 2001 [63]). The following gene specific primers were used: […]
(§3) qPCR analysis was performed three times in triplicate, and all data pooled. Error bars indicate standard error of the mean.

[5] = test system: gli1 expression in cells expressing wild type mSmo; assay: qPCR analysis of gli1 expression in NIH3T3 cells expressing wild type mSmo; type: cell-based, mouse; settings: wild type mSmo-expressing NIH3T3 cells with thapsigargin; normalized to GAPDH
Procedure: as §1
(§4) To assess gli1 and smo expression, NIH3T3 cells were plated as above and transfected using Fugene 6 (Promega). Approximately 30 hours post transfection, culture media was replaced with complete media containing 250 nM Thapsigargin or vehicle (ethanol) control. RNA was extracted using RNeasy kit (Qiagen) ˜16 hours after media exchange. cDNA was synthesized from 5 ug of RNA using SuperScript III first strand synthesis system (Invitrogen). qPCR reactions were performed on cDNA diluted 1:10 using SYBR Green PCR master mix (Applied Biosystems). GAPDH was used as a reference gene and results were analyzed using a standard 2^−ααCt method (Livak & Schmittgen, 2001 [63]). The following gene specific primers were used: […]
qPCR analysis was performed three times in triplicate, and all data pooled. […]

[6] = test system: smo expression; assay: qPCR analysis of smo expression in NIH3T3 cells expressing wild type or M2 mSmo; type: cell-based, mouse; settings: thapsigargin treatment
Procedure: as §4, §3

[7] = test system: GFP transgene under control of MS1096-Gal4; assay: Thapsigargin feeding of MS1096>GFP larvae: transgene expression in wing imaginal discs; type: in vivo, Drosophila; settings: larvae fed thapsigargin (1 uM in food) at 22° C.
Procedure: (§5) To confirm that thapsigargin treatment of transgenic Drosophila would not nonspecifically alter UAS/GAL4 transgene expression, the effect of feeding thapsigargin or vehicle control to larvae expressing a GFP transgene under control of the MS1096-Gal4 wing pouch driver was first tested (FIG. 8A). […] Next either wild type or C320A Myc-Smo proteins were expressed at 22° C. under control of MS1096-Gal4, and grew larvae on food containing either vehicle or thapsigargin (FIGS. 8C-D). Consistent with the in vitro results, wings from wild type Myc-Smo expressing flies were unaffected by thapsigargin treatment (FIGS. 8C-C′ compared to B, control).
(§6) For drug treatment, 1 to 24 hour MS1096>myc-smoC320A embryos were collected and transferred to vials containing 2 mL Jazz agarose containing vehicle (ethanol) or thapsigargin (Sigma) at a final concentration of 1 uM. Drug feeding was performed across two separate crosses and multiple progeny analyzed. Representative wings from the resulting adult flies were mounted and imaged as above.

[8] = test system: wings from wild type Myc-Smo expressing flies; assay: Thapsigargin feeding of larvae: adult wing phenotype, wild type Myc-Smo; type: in vivo, Drosophila; settings: larvae grown at 22° C. on food containing thapsigargin (1 uM) vs vehicle
Procedure: as §5
(§7) Fly stocks were maintained at 18° C. on Jazz mix agarose (Fisher). Crosses were performed at 22° C. or 29° C. as indicated. UAS-myc-smo, UAS-myc-smoC320A and UAS-mycsmoC339A (Carroll et al., 2012 [31]) were expressed under control of MS1096-Gal4. UAS-Xbp1-GFP (Ryon et al., 2007 [44]) was expressed under control of sgs3-Gal4. […] For wing analyses, crosses were performed at least twice, and multiple progeny analyzed. […]
as §6, with “Representative wings from the resulting adult flies were mounted and imaged as above.” left out

[9] = test system: Myc-SmoC320A-induced Hh gain-of-function wing phenotypes; assay: Thapsigargin feeding of larvae: adult wing phenotype, Myc-SmoC320A; type: in vivo, Drosophila; settings: larvae grown at 22° C. on food containing thapsigargin (1 uM) vs vehicle
Procedure: as §5, §7
as §6, with “Representative wings from the resulting adult flies were mounted and imaged as above.” left out

[10] = test system: Myc-SmoC320A protein; assay: Immunofluorescence of wing imaginal discs from drug-fed larvae: Myc-SmoC320A protein; type: in vivo, Drosophila; settings: discs from thapsigargin-fed larvae at 22° C. vs vehicle
Procedure: as §5, §6
(§8) pAc-myc-smo constructs were expressed in Schneider 2 (S2) cells as described (Carroll et al., 2012 [31]). […] For all indirect immunofluorescence, the indicated primary antibodies were detected using Alexa Fluor (Invitrogen) secondary antibodies conjugated to 488 or 555 fluorophores. […]

[11] = test system: C320A-mediated ectopic stabilization of Ci; assay: Immunofluorescence of wing imaginal discs from drug-fed larvae: full-length Ci; type: in vivo, Drosophila; settings: discs from thapsigargin-fed larvae at 22° C. vs vehicle
Procedure: as §5, §6, §8

## C/C=C(/C)C(=O)O[C@H]1C(C)=C2[C@H]([C@@H]1OC(=O)CCCCCCC)[C@@](C)(OC(C)=O)C[C@H](OC(=O)CCC)[C@@]1(O)[C@H]2OC(=O)[C@@]1(C)O [thapsigargin]
[1]
  C318A mSmo protein stability: destabilized
[2]
  M2 mSmo protein stability: destabilized
[3]
  wild type mSmo protein stability: not significantly affected
[4]; NIH3T3 cells, 250 nM thapsigargin ~16 hours (method), vehicle gives approx. 40-fold
  reduction of mSmoM2-mediated gli1 induction: approximately 50%
[4]; NIH3T3 cells, over-night treatment with 200 nM thapsigargin (FIG. 6B legend)
  mSmoM2-induced gli1 expression (qualitative): specific attenuation
[4]; mSmoM2-expressing NIH3T3 cells with thapsigargin, normalized to GAPDH
  gli1 expression, fold over the mSmoWT baseline: ~18 fold
[5]
  gli1 expression, fold over baseline: ~4 fold
[6]
  smo expression (wild type and M2 transcripts): modest increase; also recorded: increased modestly
[7]
  GFP transgene expression: unaffected
[8]
  wing phenotype of wild type Myc-Smo expressing flies: unaffected
[8]; listed as Thapsigargin
  wing phenotype of wild type Myc-Smo expressing flies: did not affect
[9]
  Myc-SmoC320A-induced Hh gain-of-function wing phenotype: significantly attenuated; also recorded: significantly reduced
[10]
  Myc-SmoC320A protein level in wing imaginal discs: significantly reduced; also recorded: significant reduction
[11]
  C320A-mediated ectopic stabilization of Ci in wing imaginal discs: reduced Ci stabilization; also recorded: dramatically reduced
